system: Yersinia pseudotuberculosis; assay: Antibacterial activity against Yersinia pseudotuberculosis assessed as percent resistant isolates by broth microdilution method; type: functional

SMILES	Activity
CC1(C)S[C@@H]2[C@H](NC(=O)[C@H](N)c3ccccc3)C(=O)N2[C@H]1C(=O)O [AMPICILLIN]	91.3%
O=C(O)c1cn(C2CC2)c2cc(N3CCNCC3)c(F)cc2c1=O [CIPROFLOXACIN]	0%
C[C@H]1c2cccc(O)c2C(=O)C2=C(O)[C@]3(O)C(=O)C(C(N)=O)=C(O)[C@@H](N(C)C)[C@@H]3[C@@H](O)[C@@H]21.O [DOXYCYCLINE]	4.3%
CCn1cc(C(=O)O)c(=O)c2ccc(C)nc21 [NALIDIXIC ACID]	6.5%
CC1Sc2c(C(=O)O)c(=O)c3cc(F)c(N4CCNCC4)cc3n21 (stereo not given) [ULIFLOXACIN]	0%

From ChEMBL document CHEMBL1629662, “Antimicrobial activity of prulifloxacin tested against a worldwide collection of gastroenteritis-producing pathogens, including those causing traveler's diarrhea” (2009)
